In patent US20220112175A1, “PYRIDAZINES HERBICIDAL COMPOUNDS” (SYNGENTA CROP PROTECTION AG, priority 2019, published 2022):
Like-named read-outs stand apart in the source and are kept apart here.

How the values were obtained:
Experiment in all cases: Post-emergence efficacy, glasshouse pot test
Format in all cases: in vivo
[1] = tested on: Amaranthus palmeri (AMAPA); conditions: 312 h, read-out: Post-emergence efficacy AMAPA (100=total damage to plant; 0=no damage to plant)
Experimental: (§1) Seeds of a variety of test species were sown in standard soil in pots. After cultivation for 14 days (post-emergence) under controlled conditions in a glasshouse (at 24/16° C., day/night; 14 hours light; 65% humidity), the plants were sprayed with an aqueous spray solution derived from the dissolution of the technical active ingredient formula (I) in a small amount of acetone and a special solvent and emulsifier mixture referred to as IF50 (11.12% Emulsogen EL360 TM+44.44% N-methylpyrrolidone+44.44% Dowanol DPM glycol ether), to create a 50 g/l solution which was then diluted to required concentration using 0.25% or 1% Empicol ESC70 (Sodium lauryl ether sulphate)+1% ammonium sulphate as diluent.
(§2) The test plants were then grown in a glasshouse under controlled conditions (at 24/16° C., day/night; 14 hours light; 65% humidity) and watered twice daily. After 13 days the test was evaluated (100=total damage to plant; 0=no damage to plant).
(§3) Ipomoea hederacea (IPOHE), Euphorbia heterophylla (EPHHL), Chenopodium album (CHEAL), Amaranthus palmeri (AMAPA), Lolium perenne (LOLPE), Digitaria sanguinalis (DIGSA), Eleusine indica (ELEIN), Echinochloa crus-galli (ECHCG), Setaria faberi (SETFA)

[2] = tested on: Chenopodium album (CHEAL); conditions: 312 h, read-out: Post-emergence efficacy CHEAL (100=total damage to plant; 0=no damage to plant)
Experimental: as §1, §2, §3

[3] = tested on: Digitaria sanguinalis (DIGSA); conditions: 312 h, read-out: Post-emergence efficacy DIGSA (100=total damage to plant; 0=no damage to plant)
Experimental: as §1, §2, §3

[4] = tested on: Echinochloa crus-galli (ECHCG); conditions: 312 h, read-out: Post-emergence efficacy ECHCG (100=total damage to plant; 0=no damage to plant)
Experimental: as §1, §2, §3

Eleusine indica (ELEIN) = conditions: 312 h, read-out: Post-emergence efficacy ELEIN (100=total damage to plant; 0=no damage to plant)
Experimental: as §1, §2, §3

[5] = tested on: Euphorbia heterophylla (EPHHL); conditions: 312 h, read-out: Post-emergence efficacy EPHHL (100=total damage to plant; 0=no damage to plant)
Experimental: as §1, §2, §3

[6] = tested on: Ipomoea hederacea (IPOHE); conditions: 312 h, read-out: Post-emergence efficacy IPOHE (100=total damage to plant; 0=no damage to plant)
Experimental: as §1, §2, §3

Lolium perenne (LOLPE) = conditions: 312 h, read-out: Post-emergence efficacy LOLPE (100=total damage to plant; 0=no damage to plant)
Experimental: as §1, §2, §3

Setaria faberi (SETFA) = conditions: 312 h, read-out: Post-emergence efficacy SETFA (100=total damage to plant; 0=no damage to plant)
Experimental: as §1, §2, §3

[7] = Application rate 500 g/Ha, post-emergence spray, evaluated after 13 days

SMILES	pest or weed control at 500 g/ha ([1]; post-emergence) [%]	pest or weed control at 500 g/ha ([2]; post-emergence) [%]	pest or weed control at 500 g/ha ([3]; post-emergence) [%]	pest or weed control at 500 g/ha ([4]; post-emergence) [%]	pest or weed control at 500 g/ha (Eleusine indica (ELEIN); post-emergence) [%]	pest or weed control at 500 g/ha ([5]; post-emergence) [%]	pest or weed control at 500 g/ha ([6]; post-emergence) [%]	pest or weed control at 500 g/ha (Lolium perenne (LOLPE); post-emergence) [%]	pest or weed control at 500 g/ha (Setaria faberi (SETFA); post-emergence) [%]	pest or weed control at 500 g/ha [1, 7] [%]	pest or weed control at 500 g/ha [2, 7] [%]	pest or weed control at 500 g/ha [3, 7] [%]	pest or weed control at 500 g/ha [4, 7] [%]	pest or weed control at 500 g/ha (Eleusine indica (ELEIN); [7]) [%]	pest or weed control at 500 g/ha [5, 7] [%]	pest or weed control at 500 g/ha [6, 7] [%]	pest or weed control at 500 g/ha (Lolium perenne (LOLPE); [7]) [%]	pest or weed control at 500 g/ha (Setaria faberi (SETFA); [7]) [%]
Cn1cnc(-c2cc[n+](CC(=O)NCC(=O)O)nc2)n1 [Compound A2, 2-[[2-[4-(1-methyl-1,2,4-triazol-3-yl)pyridazin-1-ium-1-yl]acetyl]amino]acetic acid chloride]	100	70	100	100	80	50	40	40	100									
CN(CC(=O)O)C(=O)C[n+]1ccc(-c2ncn(C)n2)cn1 [Compound A3]										100	100	100	100	90	50	40	30	100
Cn1cnc(-c2cc[n+](CC(=O)NCCS(=O)(=O)[O-])nc2)n1 [Compound A5, 2-[[2-[4-(1-methyl-1,2,4-triazol-3-yl)pyridazin-1-ium-1-yl]acetyl]amino]ethanesulfonate]										90	80	90	100	60	60	20	50	90
CN(CCS(=O)(=O)[O-])C(=O)C[n+]1ccc(-c2ncn(C)n2)cn1 [Compound A6]										90	80	90	90	80	70	30	20	80
Cn1cnc(-c2cc[n+](CSCCC(=O)O)nc2)n1 [Compound A7]										100	90	100	100	90	70	20	70	100
Cn1cnc(-c2cc[n+](CSCC(=O)O)nc2)n1 [Compound A8, 2-[[4-(1-methyl-1,2,4-triazol-3-yl)pyridazin-1-ium-1-yl]methylsulfanyl]acetic acid chloride]										100	90	100	100	100	70	30	70	100
CC(C)(NC(=O)C[n+]1ccc(-c2nccs2)cn1)C(=O)O [Compound A9]										100	50	40	30	70	80	20	30	40
CC(NC(=O)C[n+]1ccc(-c2nccs2)cn1)C(=O)O (stereo not drawn) [Compound A10]										100	90	40	60	40	90	60	20	40
CN(CC(=O)O)C(=O)C[n+]1ccc(-c2nccs2)cn1 [Compound A11]										90	20	40	50	50	90	20	30	50
O=C(O)CNC(=O)C[n+]1ccc(-c2nccs2)cn1 [Compound A12]										100	90	40	90	70	100	70	50	50
O=C(O)CNC(=O)CC[n+]1ccc(-c2ncco2)cn1 [Compound A13]										100	100	100	100	90	90	60	60	100
O=C(O)CNC(=O)CC[n+]1ccc(-c2nccs2)cn1 [Compound A14]										100	90	100	100	100	100	70	50	90
CC(C)(NC(=O)CC[n+]1ccc(-c2nccs2)cn1)C(=O)O [Compound A15]										100	100	100	100	90	50	40	30	100
CC(NC(=O)CC[n+]1ccc(-c2nccs2)cn1)C(=O)O (stereo not drawn) [Compound A16]										100	90	100	100	100	40	20	60	100
O=C(O)CNS(=O)(=O)CC[n+]1ccc(-c2nccs2)cn1 [Compound A17, 2-[2-(4-thiazol-2-ylpyridazin-1-ium-1-yl)ethylsulfonylamino]acetic acid 2,2,2-trifluoroacetate]										0	30	80	20	10	20	10	0	20
